# Results taken from patent US9951082B2, “Crystal of 6,7-unsaturated-7-carbamoyl morphinan derivative and method for producing the same” (Shionogi & Co., Ltd., priority 2010, dated 2018).
# Structures can show the parent of a compound that is named as a salt.
# Experiments:
# [1] = Solid stability test of crystal (storage, content by HPLC, appearance); format: physicochemical; parameters: key to Change of Appearance: when there was no change in appearance, an evaluation was (−); when there was a little change observed, it was (±); conditions: for Survival Rate: vs standard stored at −40° C.; for Change in the appearance / Solid stability, decrease in content: all storage conditions, two or four weeks
# Method: About 10 mg of crystal was correctly weighed in the 2-mL glass container with a stopper made of polyethylene.
# After closing the glass container, it was rolled with parafilm, and stored for two or four weeks at 40° C. or 60° C. The sample stored at 40° C. is called 40° C. with airtight stopper, and the sample saved at 60 C. is called 60° C. with airtight stopper.
# Also samples were reserved with the glass container opened at 40° C., relative humidity 89%, or 60° C., for two weeks or four weeks. The sample stored at 40° C. and relative humidity 89% is called 40° C. R.H.89%, and the sample stored at 60° C. is called 60° C. Opened.
# Using samples with airtight stopper stored at −40° C. as a standard, the content was measured with the absolute calibration method by the HPLC method under the following conditions:
# In addition, when there was no change in appearance, an evaluation was (−), and when there was a little change observed, it was (±).
# Column: CAPCELL PAK C18 AQ (3 micrometer 3.0×150 mm)
# Column temperature: 50° C.
# UV detection wavelength: 231 nm
# [A] A mixed solution containing ammonium formate (10 mmol/L) and magnesium chloride (10 mmol/L)
# [2] = Confirmatory test for hygroscopicity of crystal (automated water vapor sorption, DVS); format: physicochemical
# Method: After completion of the drying, relative humidity was continuously changed at intervals of 5% in a range from 0% to 95% and the amount of water vapor adsorption and desorption of the sample was measured with automated water vapor sorption apparatus: DVS Advantage (Surface Measurement Systems).
# [3] = 40° C. R.H. 89%, opened, 2 weeks
# [4] = 40° C. R.H. 89%, opened, 4 weeks
# [5] = 60° C. airtight stopper, 2 weeks
# [6] = 60° C. airtight stopper, 4 weeks
# [7] = 40° C. airtight stopper, 4 weeks
SMILES,"Change of Appearance [1, 3]","Survival Rate [1, 3]","Change of Appearance [1, 4]","Survival Rate [1, 4]","Change of Appearance ([1]; 60° C. Opened, 2 weeks)","Survival Rate ([1]; 60° C. Opened, 2 weeks)","Change of Appearance ([1]; 60° C. Opened, 4 weeks)","Survival Rate ([1]; 60° C. Opened, 4 weeks)","Change of Appearance [1, 5]","Survival Rate [1, 5]","Change of Appearance [1, 6]","Survival Rate [1, 6]",Change in the appearance [1],"Solid stability, decrease in content [1]","Change of Appearance [1, 7]","Survival Rate [1, 7]",Hygroscopicity (in words) ([2]; 0% to 95% relative humidity at 25° C.),Amount of the maximum moisture absorption ([2]; range of 0% to 95% of relative humidity at 25° C.)
CC(C)(NC(=O)C1=C(O)[C@@H]2Oc3c(O)ccc4c3[C@@]23CCN(CC2CC2)[C@H](C4)[C@]3(O)C1)c1nc(-c2ccccc2)no1 [p-toluenesulfonic acid salt hydrate (form II)],−,100.9%,±,100.1%,−,100.7%,±,100.4%,−,102.0%,±,100.6%,no change in the appearance,stable,,,,
CC(C)(NC(=O)C1=C(O)[C@@H]2Oc3c(O)ccc4c3[C@@]23CCN(CC2CC2)[C@H](C4)[C@]3(O)C1)c1nc(-c2ccccc2)no1 [p-toluenesulfonic acid salt (non-solvate)],−,99.3%,−,100.5%,−,100.3%,−,98.8%,−,99.9%,−,99.6%,no change in the appearance,stable,−,98.0%,hygroscopicity was little observed,less than 1.2%
CC(C)(NC(=O)C1=C(O)[C@@H]2Oc3c(O)ccc4c3[C@@]23CCN(CC2CC2)[C@H](C4)[C@]3(O)C1)c1nc(-c2ccccc2)no1 [p-toluenesulfonic acid salt hydrate (form I)],−,101.2%,±,98.4%,−,100.5%,±,98.5%,−,100.8%,±,99.2%,no change in the appearance,stable,,,,
